Data: PubChem BioAssay (NCI)
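Method: 48-hour compound exposure of cells in 96-well plates, five concentrations, linear interpolation of endpoints. GI50 = concentration required for 50% inhibition of growth. Definition used: TGI = concentration required for complete inhibition of growth.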

Columns and labels:
Test in all cases: NCI anticancer screen, dose series, 48 h
786-0 renal = tested on: 786-0 renal
A498 renal = tested on: A498 renal
A549 NSCLC = tested on: A549 NSCLC
ACHN renal = tested on: ACHN renal
BT-549 breast = tested on: BT-549 breast
CAKI-1 renal = tested on: CAKI-1 renal
CCRF-CEM leukemia = tested on: CCRF-CEM leukemia
COLO 205 colon = tested on: COLO 205 colon
DU-145 prostate = tested on: DU-145 prostate
EKVX NSCLC = tested on: EKVX NSCLC
HCC-2998 colon = tested on: HCC-2998 colon
HCT-116 colon = tested on: HCT-116 colon
HCT-15 colon = tested on: HCT-15 colon
HL-60(TB) leukemia = tested on: HL-60(TB) leukemia
HOP-62 NSCLC = tested on: HOP-62 NSCLC
HOP-92 NSCLC = tested on: HOP-92 NSCLC
HS 578T breast = tested on: HS 578T breast
HT29 colon = tested on: HT29 colon
IGROV1 ovarian = tested on: IGROV1 ovarian
K-562 leukemia = tested on: K-562 leukemia
KM12 colon = tested on: KM12 colon
LOX IMVI melanoma = tested on: LOX IMVI melanoma
M14 melanoma = tested on: M14 melanoma
MALME-3M melanoma = tested on: MALME-3M melanoma
MCF7 breast = tested on: MCF7 breast
MDA-MB-231 breast = tested on: MDA-MB-231 breast
MDA-MB-435 = tested on: MDA-MB-435
MOLT-4 leukemia = tested on: MOLT-4 leukemia
NCI-H226 lung = tested on: NCI-H226 lung
NCI-H23 lung = tested on: NCI-H23 lung
NCI-H460 lung = tested on: NCI-H460 lung
NCI-H522 lung = tested on: NCI-H522 lung
NCI/ADR-RES ovarian = tested on: NCI/ADR-RES ovarian
OVCAR-3 ovarian = tested on: OVCAR-3 ovarian
OVCAR-4 ovarian = tested on: OVCAR-4 ovarian
OVCAR-5 ovarian = tested on: OVCAR-5 ovarian
OVCAR-8 ovarian = tested on: OVCAR-8 ovarian
PC-3 prostate = tested on: PC-3 prostate
RPMI-8226 leukemia = tested on: RPMI-8226 leukemia
RXF 393 renal = tested on: RXF 393 renal
SF-268 CNS = tested on: SF-268 CNS
SF-295 CNS = tested on: SF-295 CNS
SF-539 CNS = tested on: SF-539 CNS
SK-MEL-2 melanoma = tested on: SK-MEL-2 melanoma
SK-MEL-28 melanoma = tested on: SK-MEL-28 melanoma
SK-MEL-5 melanoma = tested on: SK-MEL-5 melanoma
SK-OV-3 ovarian = tested on: SK-OV-3 ovarian
SN12C renal = tested on: SN12C renal
SNB-19 CNS = tested on: SNB-19 CNS
SNB-75 CNS = tested on: SNB-75 CNS
SR leukemia = tested on: SR leukemia
SW-620 colon = tested on: SW-620 colon
T-47D breast = tested on: T-47D breast
TK-10 renal = tested on: TK-10 renal
U251 CNS = tested on: U251 CNS
UACC-62 melanoma = tested on: UACC-62 melanoma
UO-31 renal = tested on: UO-31 renal

C[C@@H]1C[N+]2([O-])[C@H]3C4=CCC[C@@H]4CC[C@H]3[C@@]3(C)OC(=O)CC[C@]34CC[C@H]1[C@@H]42 (some centres undefined)
GI50 (786-0 renal): > 60 µM | TGI (786-0 renal): > 60 µM | GI50 (A498 renal): > 60 µM | TGI (A498 renal): > 60 µM | GI50 (A549 NSCLC): > 60 µM | TGI (A549 NSCLC): > 60 µM | GI50 (ACHN renal): > 60 µM | TGI (ACHN renal): > 60 µM | GI50 (BT-549 breast): > 60 µM | TGI (BT-549 breast): > 60 µM | GI50 (CAKI-1 renal): > 60 µM | TGI (CAKI-1 renal): > 60 µM | GI50 (CCRF-CEM leukemia): > 60 µM | TGI (CCRF-CEM leukemia): > 60 µM | GI50 (COLO 205 colon): > 60 µM | TGI (COLO 205 colon): > 60 µM | GI50 (DU-145 prostate): > 60 µM | TGI (DU-145 prostate): > 60 µM | GI50 (EKVX NSCLC): > 60 µM | TGI (EKVX NSCLC): > 60 µM | GI50 (HCC-2998 colon): > 60 µM | TGI (HCC-2998 colon): > 60 µM | GI50 (HCT-116 colon): > 60 µM | TGI (HCT-116 colon): > 60 µM | GI50 (HCT-15 colon): > 60 µM | TGI (HCT-15 colon): > 60 µM | GI50 (HL-60(TB) leukemia): > 60 µM | TGI (HL-60(TB) leukemia): > 60 µM | GI50 (HOP-62 NSCLC): > 60 µM | TGI (HOP-62 NSCLC): > 60 µM | GI50 (HOP-92 NSCLC): > 60 µM | TGI (HOP-92 NSCLC): > 60 µM | GI50 (HS 578T breast): > 60 µM | TGI (HS 578T breast): > 60 µM | GI50 (HT29 colon): > 60 µM | TGI (HT29 colon): > 60 µM | GI50 (IGROV1 ovarian): > 60 µM | TGI (IGROV1 ovarian): > 60 µM | GI50 (K-562 leukemia): > 60 µM | TGI (K-562 leukemia): > 60 µM | GI50 (KM12 colon): > 60 µM | TGI (KM12 colon): > 60 µM | GI50 (LOX IMVI melanoma): > 60 µM | TGI (LOX IMVI melanoma): > 60 µM | GI50 (M14 melanoma): > 60 µM | TGI (M14 melanoma): > 60 µM | GI50 (MALME-3M melanoma): > 60 µM | TGI (MALME-3M melanoma): > 60 µM | GI50 (MCF7 breast): > 60 µM | TGI (MCF7 breast): > 60 µM | GI50 (MDA-MB-231 breast): > 60 µM | TGI (MDA-MB-231 breast): > 60 µM | GI50 (MDA-MB-435): > 60 µM | TGI (MDA-MB-435): > 60 µM | GI50 (MOLT-4 leukemia): > 60 µM | TGI (MOLT-4 leukemia): > 60 µM | GI50 (NCI-H226 lung): > 60 µM | TGI (NCI-H226 lung): > 60 µM | GI50 (NCI-H23 lung): > 60 µM | TGI (NCI-H23 lung): > 60 µM | GI50 (NCI-H460 lung): > 60 µM | TGI (NCI-H460 lung): > 60 µM | GI50 (NCI-H522 lung): > 60 µM | TGI (NCI-H522 lung): > 60 µM | GI50 (NCI/ADR-RES ovarian): > 60 µM | TGI (NCI/ADR-RES ovarian): > 60 µM | GI50 (OVCAR-3 ovarian): > 60 µM | TGI (OVCAR-3 ovarian): > 60 µM | GI50 (OVCAR-4 ovarian): > 60 µM | TGI (OVCAR-4 ovarian): > 60 µM | GI50 (OVCAR-5 ovarian): > 60 µM | TGI (OVCAR-5 ovarian): > 60 µM | GI50 (OVCAR-8 ovarian): > 60 µM | TGI (OVCAR-8 ovarian): > 60 µM | GI50 (PC-3 prostate): > 60 µM | TGI (PC-3 prostate): > 60 µM | GI50 (RPMI-8226 leukemia): > 60 µM | TGI (RPMI-8226 leukemia): > 60 µM | GI50 (RXF 393 renal): > 60 µM | TGI (RXF 393 renal): > 60 µM | GI50 (SF-268 CNS): > 60 µM | TGI (SF-268 CNS): > 60 µM | GI50 (SF-295 CNS): > 60 µM | TGI (SF-295 CNS): > 60 µM | GI50 (SF-539 CNS): > 60 µM | TGI (SF-539 CNS): > 60 µM | GI50 (SK-MEL-2 melanoma): > 60 µM | TGI (SK-MEL-2 melanoma): > 60 µM | GI50 (SK-MEL-28 melanoma): > 60 µM | TGI (SK-MEL-28 melanoma): > 60 µM | GI50 (SK-MEL-5 melanoma): > 60 µM | TGI (SK-MEL-5 melanoma): > 60 µM | GI50 (SK-OV-3 ovarian): > 60 µM | TGI (SK-OV-3 ovarian): > 60 µM | GI50 (SN12C renal): > 60 µM | TGI (SN12C renal): > 60 µM | GI50 (SNB-19 CNS): > 60 µM | TGI (SNB-19 CNS): > 60 µM | GI50 (SNB-75 CNS): > 60 µM | TGI (SNB-75 CNS): > 60 µM | GI50 (SR leukemia): > 60 µM | TGI (SR leukemia): > 60 µM | GI50 (SW-620 colon): > 60 µM | TGI (SW-620 colon): > 60 µM | GI50 (T-47D breast): > 60 µM | TGI (T-47D breast): > 60 µM | GI50 (TK-10 renal): > 60 µM | TGI (TK-10 renal): > 60 µM | GI50 (U251 CNS): > 60 µM | TGI (U251 CNS): > 60 µM | GI50 (UACC-62 melanoma): > 60 µM | TGI (UACC-62 melanoma): > 60 µM | GI50 (UO-31 renal): > 60 µM | TGI (UO-31 renal): > 60 µM
